From patent US8580919B2, “Polymer conjugates of GLP-1” (Nektar Therapeutics, priority 2005, dated 2013)
Ends that are not written are not given here.

Columns and labels:
diabetic db/db mice = test: In-vivo study of blood-glucose lowering effects, subcutaneous dose, diabetic db/db mice (Example 8); parameters: species or system mouse; details: for blood glucose-lowering effect: single SC dose, FIG. 13
Description: Male diabetic mice (BKS.Cg-+Lepr db/+Lepr db/01aHsd) were purchased from Harlan Laboratories, Ltd. (Jerusalem, Israel). The 8-9 week old animals (30-40 gm) were placed in mouse cages (two animals per cage), and allowed at least 48 hours of acclimatization before the start of the study.
The study was divided into two phases: a feasibility phase and an evaluation phase.
In carrying out the feasibility phase, several groups of mice were used wherein four mice were used in each group. Data on the baseline glucose levels were gathered for each mouse for 2-3 days prior to drug dosing. This was performed to identify any outliers in the group of animals. On the day of treatment (Day 0) each animal was weighed. A time 0 day blood sample (5 to 10 μL) was collected from the tail vein. The glucose level (mg/dL) was measured using a glucose analyzer. Each animal was then dosed subcutaneously (SC) below the skin on the back. […] The animals were then allowed to return into their cages. Blood samples of 5 to 10 μL (<0.5% of 2 mL blood volume for a 35 g mouse) were removed through a needle prick/capillary tube at the following time points: −3, −2, −1, 0, 0.04, 0.16, 0.33, 1.0, 1.16 days. Each collected blood sample was tested for its glucose level. At the end of the study, the animals were humanely euthanized by carbon-dioxide asphyxiation.
In carrying out the evaluation phase, eight mice were used in each group. Data on the baseline glucose levels were gathered for each mouse three days prior to drug dosing. On the day of treatment (Day 0) each animal was weighed. A time 0 day blood sample (5 to 10 μL) was collected from the tail vein. The glucose level (mg/dL) was measured using a glucose analyzer. Each animal was then dosed subcutaneously (SC) below the skin on the back. […] The animals were then allowed to return into their cages. Blood samples of 5 to 10 μL (<0.5% of 2 mL blood volume for a 35 g mouse) were removed through a needle prick/capillary tube at the following time points: −3, −2, −1, 0, 0.04, 0.16, 0.33, 0.5, 1, 2, 3, 6 days. Each collected blood sample was for its glucose level. […]

[1] = Lability of the conjugate on attempted further purification (Example 23); assay type: physicochemical; details: when attempting to further purify the conjugate
Description: The conjugate rapidly hydrolyzed to native GLP-1 and a GLP-1 derivative resulting from an intramolecular ring closure reaction due to reaction at the carbamate carbonyl by the imidazolyl nitrogen of the N-terminal histidine of GLP-1. The modified GLP-1 thereby released is shown below. Further purification was not pursued.

Substance	blood glucose-lowering effect (diabetic db/db mice)	PD effect of 40 kilodalton PEG conjugate compared to 20 kilodalton PEG conjugate (diabetic db/db mice; SC 420 μg)	stability of the conjugate [1]
G2PEG2Fmoc20K-Lys-GLP-1: G2PEG2Fmoc20k-NHS covalently and releasably attached to a lysine position of GLP-1 (HAEGTFTSDVSSYLEGQAAKEFIAWLVKGRG; also: releasable G2PEG2Fmoc 20 kDa PEG on a lysine, position not given here; UniProt P01275 98-128, looked up)	confirmed		
G2PEG2Fmoc40K-Lys-GLP-1: G2PEG2Fmoc40k-NHS covalently and releasably attached to a lysine position of GLP-1 (HAEGTFTSDVSSYLEGQAAKEFIAWLVKGRG; also: releasable G2PEG2Fmoc 40 kDa PEG on a lysine, position not given here; UniProt P01275 98-128, looked up)	confirmed	small but extended PD effect	
N-terminal GLP-1 conjugate prepared by reaction with an mPEG-SBC reagent: counterpart N-terminal GLP-1 conjugate prepared by reaction with an mPEG-SBC reagent			extremely labile
